Measurements published in ChEMBL document CHEMBL1149765, “Anti-tumor 12-deoxyphorbol esters from Euphorbia cornigera” (Eur J Med Chem, 2008).
In brackets after ≈: the same amount, converted by molar mass.

Key:
KB [1] = assay: Inhibition of DNA synthesis in human KB cells assessed as 5-bromo-2'-deoxyuridin incorporation at 5.0 ug/ml; assay type: functional
KB [2] = assay: Cytotoxicity against human KB cells assessed as necrotic cells at 1.0 ug/ml by trypan blue exclusion assay; assay type: functional
KB [3] = assay: Cytotoxicity against human KB cells assessed as apoptotic cells at 2.5 ug/ml by trypan blue exclusion assay; assay type: functional
KB [4] = assay: Cytotoxicity against human KB cells by MTT assay; assay type: functional, cell-based
KB [5] = assay: Inhibition of DNA synthesis in human KB cells assessed as ratio of DNA in treated to control cells at 1.0 ug/ml; assay type: functional
KB [6] = assay: Inhibition of DNA synthesis in human KB cells assessed as ratio of DNA in treated to control cells at 2.5 ug/ml; assay type: functional
KB [7] = assay: Cytotoxicity against human KB cells assessed as viable cells at 1.0 ug/ml by trypan blue exclusion assay; assay type: functional; settings: read-out: Activity
KB [8] = assay: Cytotoxicity against human KB cells assessed as viable cells at 5.0 ug/ml by trypan blue exclusion assay; assay type: functional; settings: read-out: Activity
KB [9] = assay: Cytotoxicity against human KB cells assessed as necrotic cells at 2.5 ug/ml by trypan blue exclusion assay; assay type: functional
KB [10] = assay: Cytotoxicity against human KB cells assessed as apoptotic cells at 1.0 ug/ml by trypan blue exclusion assay; assay type: functional
KB [11] = assay: Cytotoxicity against human KB cells assessed as necrotic cells at 5.0 ug/ml by trypan blue exclusion assay; assay type: functional
KB [12] = assay: Cytotoxicity against human KB cells assessed as viable cells at 2.5 ug/ml by trypan blue exclusion assay; assay type: functional; settings: read-out: Activity
KB [13] = assay: Cytotoxicity against human KB cells assessed as apoptotic cells at 5.0 ug/ml by trypan blue exclusion assay; assay type: functional
KB [14] = assay: Inhibition of DNA synthesis in human KB cells assessed as 5-bromo-2'-deoxyuridin incorporation at 2.5 ug/ml; assay type: functional
KB [15] = assay: Cytotoxicity against human KB cells assessed as necrotic cells at 0.3 ug/ml by trypan blue exclusion assay; assay type: functional
KB [16] = assay: Cytotoxicity against human KB cells assessed as viable cells at 0.3 ug/ml by trypan blue exclusion assay; assay type: functional; settings: read-out: Activity
KB [17] = assay: Inhibition of DNA synthesis in human KB cells assessed as ratio of DNA in treated to control cells at 0.3 ug/ml; assay type: functional
KB [18] = assay: Cytotoxicity against human KB cells assessed as apoptotic cells at 0.3 ug/ml by trypan blue exclusion assay; assay type: functional
KB [19] = assay: Inhibition of DNA synthesis in human KB cells assessed as 5-bromo-2'-deoxyuridin incorporation at 0.3 ug/ml; assay type: functional

With CCCCCCCCCC(=O)OCC1=C[C@H]2[C@@H]3C(C)(C)[C@]3(OC(=O)CCCCCCCCC)C[C@@H](C)[C@]2(O)[C@@H]2C=C(C)C(=O)[C@@]2(O)C1 the inhibition at 5 µg/mL (KB [1]) was 27.9%, the Activity (KB [2]) was 2% and the Activity (KB [3]) was 60.29%. The IC50 (KB [4]) was 0.5 mg/L (≈ 0.761 µM), the Ratio (KB [5]) was 0.57 and the Ratio (KB [6]) was 0.71. It also gave a viability at 1 µg/mL (KB [7]) of 58.8%, a viability at 5 µg/mL (KB [8]) of 15.9% and an Activity (KB [9]) of 3%. It also gave an Activity (KB [10]) of 39.24%, an Activity (KB [11]) of 6% and a viability at 2.5 µg/mL (KB [12]) of 36.7%. The Activity (KB [13]) was 78.13% and the inhibition at 2.5 µg/mL (KB [14]) was 86%.

For C/C=C(\C)C(=O)OCC1=C[C@H]2[C@@H]3C(C)(C)[C@]3(OC(=O)CCCCCCCCC)C[C@@H](C)[C@]2(O)[C@@H]2C=C(C)C(=O)[C@@]2(O)C1, the IC50 (KB [4]) was 7.6 mg/L (≈ 13 µM).

CCCCCCCCCC(=O)OCC1=C[C@H]2[C@@H]3C(C)(C)[C@]3(OC(=O)CCCCCCC)C[C@@H](C)[C@]2(O)[C@@H]2C=C(C)C(=O)[C@@]2(O)C1 showed an inhibition at 5 µg/mL (KB [1]) of 23%, an Activity (KB [2]) of 0% and an Activity (KB [3]) of 34%. The IC50 (KB [4]) was 0.8 mg/L (≈ 1.27 µM), the Ratio (KB [5]) was 0.87 and the Ratio (KB [6]) was 0.71. For the same compound, the viability at 1 µg/mL (KB [7]) was 74.7%, the viability at 5 µg/mL (KB [8]) was 26.1% and the Activity (KB [9]) was 1%. For the same compound, the Activity (KB [10]) was 25.23%, the Activity (KB [11]) was 3% and the viability at 2.5 µg/mL (KB [12]) was 65%. The Activity (KB [13]) was 70.89% and the inhibition at 2.5 µg/mL (KB [14]) was 85%.

In the case of COc1ccc(C(=O)OCC2=C[C@H]3[C@@H]4C(C)(C)[C@]4(OC(C)=O)C[C@@H](C)[C@]3(O)[C@@H]3C=C(C)C(=O)[C@@]3(O)C2)cc1, the IC50 (KB [4]) is reported as 8.5 mg/L (≈ 16.2 µM).

In the case of CCCCCCCCCCCC(=O)O[C@@]12C[C@@H](C)[C@@]3(O)[C@@H](C=C(COC(=O)CCCCCCCCC)C[C@]4(O)C(=O)C(C)=C[C@@H]34)[C@@H]1C2(C)C, the inhibition at 5 µg/mL (KB [1]) is reported as 25.9%, the Activity (KB [2]) is reported as 0% and the Activity (KB [3]) is reported as 52.23%. It also gave an IC50 (KB [4]) of 1 mg/L (≈ 1.46 µM), a Ratio (KB [5]) of 0.47 and a Ratio (KB [6]) of 0.51. For the same compound, the viability at 1 µg/mL (KB [7]) was 78.8%, the viability at 5 µg/mL (KB [8]) was 27.9% and the Activity (KB [9]) was 1%. For the same compound, the Activity (KB [10]) was 11.24%, the Activity (KB [11]) was 2% and the viability at 2.5 µg/mL (KB [12]) was 46.7%. The Activity (KB [13]) was 70.13% and the inhibition at 2.5 µg/mL (KB [14]) was 76%.

With CCCCCCCCCC(=O)OCC1=C[C@H]2[C@@H]3C(C)(C)[C@]3(OC(=O)CCCCC)C[C@@H](C)[C@]2(O)[C@@H]2C=C(C)C(=O)[C@@]2(O)C1 the IC50 (KB [4]) was 7.2 mg/L (≈ 12 µM).

With C/C=C(/C)C(=O)OCC1=C[C@H]2[C@@H]3C(C)(C)[C@]3(OC(=O)CCCCCCCCC)C[C@@H](C)[C@]2(O)[C@@H]2C=C(C)C(=O)[C@@]2(O)C1 the IC50 (KB [4]) was 6.4 mg/L (≈ 10.9 µM).

For CCCCCCCCCC(=O)OCC1=C[C@H]2[C@@H]3C(C)(C)[C@]3(OC(=O)CCC)C[C@@H](C)[C@]2(O)[C@@H]2C=C(C)C(=O)[C@@]2(O)C1, the IC50 (KB [4]) was 7.8 mg/L (≈ 13.6 µM).

For CCCCCCCCCC(=O)OCC1=C[C@H]2[C@@H]3C(C)(C)[C@]3(OC(C)=O)C[C@@H](C)[C@]2(O)[C@@H]2C=C(C)C(=O)[C@@]2(O)C1, the IC50 (KB [4]) was 8.5 mg/L (≈ 15.6 µM).

CC(=O)O[C@@]12C[C@@H](C)[C@@]3(O)[C@@H](C=C(COC(=O)c4ccccc4)C[C@]4(O)C(=O)C(C)=C[C@@H]34)[C@@H]1C2(C)C gave an IC50 (KB [4]) of 8.2 mg/L (≈ 16.6 µM).

In the case of COc1cccc2c1C(=O)c1c(O)c3c(c(O)c1C2=O)C[C@@](O)(C(=O)CO)C[C@@H]3O[C@H]1C[C@H](N)[C@H](O)[C@H](C)O1.Cl [DOXORUBICIN HYDROCHLORIDE], the IC50 (KB [4]) is reported as 10 mg/L.

COc1cccc2c1C(=O)c1c(O)c3c(c(O)c1C2=O)C[C@@](O)(C(=O)CO)C[C@@H]3O[C@H]1C[C@H](N)[C@H](O)[C@H](C)O1 [DOXORUBICIN] showed an Activity (KB [15]) of 1%, a viability at 0.3 µg/mL (KB [16]) of 37.7% and a Ratio (KB [17]) of 0.57. For the same compound, the Activity (KB [18]) was 61.33% and the inhibition at 0.3 µg/mL (KB [19]) was 37.7%.

CC(=O)O[C@@]12C[C@@H](C)[C@@]3(O)[C@@H](C=C(CO)C[C@]4(O)C(=O)C(C)=C[C@@H]34)[C@@H]1C2(C)C [PROSTRATIN] was tested, and the IC50 (KB [4]) was 1000 mg/L (≈ 2560 µM).
